Measurements taken from patent publication US20250236609A1, “VPS34 INHIBITORS AND METHODS OF USE THEREOF” (Deciphera Pharmaceuticals, LLC, priority 2023, published 2025).

How the values were obtained:
[1] = molecular target: VPS34 (Homo sapiens (Human), UniProt Q8NEB9); test: Biochemical Assay for VPS34 (ADP-Glo kinase activity assay); details: 25 nM VPS34, 1 mM ATP, 1-hour incubation at 37° C.; read-out: VPS34 (Inhibition of biochemical activity of VPS34, IC50)
Experimental: Activity of VPS34 kinase was determined using an ADP-Glo kinase activity assay (Promega Corp). Assays were conducted in 384-well plates (5 μL assay volume) using 25 nM VPS34 (ThermoFisher Scientific), […] PI:3PS Lipid Kinase Substrate (Promega Corp.), and 1 mM ATP in kinase buffer. Inhibition of VPS34 was measured by adding serial diluted test compound (final assay concentration of 0.1% DMSO) followed by a 1-hour incubation at 37° C. ADP-Glo reagent was then added ([…]) followed by a 40 min incubation at rt. Kinase detection reagent was then added ([…]) and followed by a 60 min incubation at rt. Luminescence was then detected. The RLU at each compound concentration of was converted to percent inhibition using controls (i.e., reaction with no test compound and reaction with a known inhibitor) and IC50 values were calculated by fitting a four-parameter sigmoidal curve to the data using GeneData Screener software.
VPS34 Protein Sequence (Full Length with GST Tag)

[2] = molecular target: PI3K (p110α (E542K)/p85α) (Homo sapiens (Human), UniProt P42336, E542K); test: Lipid kinase selectivity panel (Reaction Biology); assay type: biochemical; details: 1 μM compound, single dose duplicates, 10 μM ATP; read-out: Percent inhibition relative to DMSO control, PI3K (p110α (E542K)/p85α)
Experimental: (§1) The compounds of the present invention were tested in a standard lipid kinase selectivity panel: 16 other lipid kinases (Reaction Biology, Malvern, PA, USA), under conditions of non-disclosure, non-dissemination, and non-use. In brief, compounds (see Table 2) were tested at in single dose duplicates at 1 μM against lipid kinases, including PI3Kα, PI3Kβ, and PI3Kδ, and reactions were carried out at 10 μM ATP.

[3] = molecular target: PI3K (p110α (E545K)/p85α) (Homo sapiens (Human), UniProt P42336, E545K); test: Lipid kinase selectivity panel (Reaction Biology); assay type: biochemical; details: 1 μM compound, single dose duplicates, 10 μM ATP; read-out: Percent inhibition relative to DMSO control, PI3K (p110α (E545K)/p85α)
Experimental: as §1

[4] = molecular target: PI3K (p110α (H1047R)/p85α) (Homo sapiens (Human), UniProt P42336, H1047R); test: Lipid kinase selectivity panel (Reaction Biology); assay type: biochemical; details: 1 μM compound, single dose duplicates, 10 μM ATP; read-out: Percent inhibition relative to DMSO control, PI3K (p110α (H1047R)/p85α)
Experimental: as §1

[5] = molecular target: PI3K (p110α/p65α) (Homo sapiens (Human), UniProt P42336); test: Lipid kinase selectivity panel (Reaction Biology); assay type: biochemical; details: 1 μM compound, single dose duplicates, 10 μM ATP; read-out: Percent inhibition relative to DMSO control, PI3K (p110α/p65α)
Experimental: as §1

[6] = molecular target: PI3KC2α (Homo sapiens (Human), UniProt O00443); test: Lipid kinase selectivity panel (Reaction Biology); assay type: biochemical; details: 1 μM compound, single dose duplicates, 10 μM ATP; read-out: Percent inhibition relative to DMSO control, PI3KC2α
Experimental: as §1

[7] = molecular target: PI3Kb (p110β/p85α) (Homo sapiens (Human), UniProt P42338); test: Lipid kinase selectivity panel (Reaction Biology); assay type: biochemical; details: 1 μM compound, single dose duplicates, 10 μM ATP; read-out: Percent inhibition relative to DMSO control, PI3Kb (p110β/p85α)
Experimental: as §1

[8] = molecular target: PI3Kd (p110δ/p85α) (Homo sapiens (Human), UniProt O00329); test: Lipid kinase selectivity panel (Reaction Biology); assay type: biochemical; details: 1 μM compound, single dose duplicates, 10 μM ATP; read-out: Percent inhibition relative to DMSO control, PI3Kd (p110δ/p85α)
Experimental: as §1

[9] = molecular target: PI3Kg (p110γ) (Homo sapiens (Human), UniProt P48736); test: Lipid kinase selectivity panel (Reaction Biology); assay type: biochemical; details: 1 μM compound, single dose duplicates, 10 μM ATP; read-out: Percent inhibition relative to DMSO control, PI3Kg (p110γ)
Experimental: as §1

[10] = molecular target: PI3Kα (p110α/p85α) (Homo sapiens (Human), UniProt P42336); test: Lipid kinase selectivity panel (Reaction Biology); assay type: biochemical; details: 1 μM compound, single dose duplicates, 10 μM ATP; read-out: Percent inhibition relative to DMSO control, PI3Kα (p110α/p85α)
Experimental: as §1

Chain of PI3K (p110α (E542K)/p85α) (P42336 whole entry E542K): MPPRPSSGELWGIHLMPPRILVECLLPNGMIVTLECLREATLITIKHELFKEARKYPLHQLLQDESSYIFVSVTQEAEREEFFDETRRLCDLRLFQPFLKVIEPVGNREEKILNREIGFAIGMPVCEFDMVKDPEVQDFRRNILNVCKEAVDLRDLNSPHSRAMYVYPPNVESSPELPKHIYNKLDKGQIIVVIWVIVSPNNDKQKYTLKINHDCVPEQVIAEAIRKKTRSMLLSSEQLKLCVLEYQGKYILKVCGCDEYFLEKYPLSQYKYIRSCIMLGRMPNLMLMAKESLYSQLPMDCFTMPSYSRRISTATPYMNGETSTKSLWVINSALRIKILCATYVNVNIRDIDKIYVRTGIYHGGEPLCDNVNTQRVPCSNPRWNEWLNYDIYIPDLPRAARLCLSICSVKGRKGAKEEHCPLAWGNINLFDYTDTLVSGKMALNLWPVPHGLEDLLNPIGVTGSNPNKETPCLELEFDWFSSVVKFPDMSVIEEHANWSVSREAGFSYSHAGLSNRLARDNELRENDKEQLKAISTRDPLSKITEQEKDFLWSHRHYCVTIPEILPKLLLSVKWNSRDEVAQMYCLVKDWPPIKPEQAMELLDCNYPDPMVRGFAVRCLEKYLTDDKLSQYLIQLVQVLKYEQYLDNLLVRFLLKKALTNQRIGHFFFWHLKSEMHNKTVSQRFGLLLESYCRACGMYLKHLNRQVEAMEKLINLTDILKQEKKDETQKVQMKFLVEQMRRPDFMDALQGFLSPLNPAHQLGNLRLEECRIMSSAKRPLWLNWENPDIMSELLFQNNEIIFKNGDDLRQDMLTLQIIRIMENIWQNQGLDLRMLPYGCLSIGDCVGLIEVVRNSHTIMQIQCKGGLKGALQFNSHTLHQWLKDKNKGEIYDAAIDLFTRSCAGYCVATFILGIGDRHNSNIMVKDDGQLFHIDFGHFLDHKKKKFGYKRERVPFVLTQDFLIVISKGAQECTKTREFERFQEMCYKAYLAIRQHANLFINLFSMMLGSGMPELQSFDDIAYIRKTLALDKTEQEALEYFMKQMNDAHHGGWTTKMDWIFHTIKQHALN
Chain of PI3K (p110α (E542K)/p85α) (P27986 whole entry partner): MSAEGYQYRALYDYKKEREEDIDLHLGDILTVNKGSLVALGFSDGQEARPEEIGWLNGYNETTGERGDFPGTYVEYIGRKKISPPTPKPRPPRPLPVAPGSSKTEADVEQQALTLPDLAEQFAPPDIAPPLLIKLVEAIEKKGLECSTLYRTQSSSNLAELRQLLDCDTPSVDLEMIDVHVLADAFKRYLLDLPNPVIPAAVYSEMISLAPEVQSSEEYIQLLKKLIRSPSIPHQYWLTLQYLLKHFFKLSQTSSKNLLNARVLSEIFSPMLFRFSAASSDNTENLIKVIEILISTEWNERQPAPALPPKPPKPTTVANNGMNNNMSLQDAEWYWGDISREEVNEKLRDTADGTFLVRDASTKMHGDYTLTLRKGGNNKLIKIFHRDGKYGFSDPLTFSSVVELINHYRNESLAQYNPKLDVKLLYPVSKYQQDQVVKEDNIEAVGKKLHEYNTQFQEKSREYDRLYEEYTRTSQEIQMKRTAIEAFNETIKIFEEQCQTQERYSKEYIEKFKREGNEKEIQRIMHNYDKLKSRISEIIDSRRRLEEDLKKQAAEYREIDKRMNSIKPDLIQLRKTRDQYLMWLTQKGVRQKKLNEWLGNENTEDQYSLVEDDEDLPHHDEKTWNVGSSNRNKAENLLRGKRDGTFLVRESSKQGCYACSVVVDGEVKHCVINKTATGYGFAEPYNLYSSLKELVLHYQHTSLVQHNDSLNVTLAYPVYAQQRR
Chain of PI3K (p110α (E545K)/p85α) (P42336 whole entry E545K): as the sequence (P42336 whole entry E542K) above, with K542E, E545K counted along it
Chain of PI3K (p110α (E545K)/p85α) (P27986 whole entry partner): as the sequence (P27986 whole entry partner) above
Chain of PI3Kg (p110γ) (P48736 whole entry, species assumed): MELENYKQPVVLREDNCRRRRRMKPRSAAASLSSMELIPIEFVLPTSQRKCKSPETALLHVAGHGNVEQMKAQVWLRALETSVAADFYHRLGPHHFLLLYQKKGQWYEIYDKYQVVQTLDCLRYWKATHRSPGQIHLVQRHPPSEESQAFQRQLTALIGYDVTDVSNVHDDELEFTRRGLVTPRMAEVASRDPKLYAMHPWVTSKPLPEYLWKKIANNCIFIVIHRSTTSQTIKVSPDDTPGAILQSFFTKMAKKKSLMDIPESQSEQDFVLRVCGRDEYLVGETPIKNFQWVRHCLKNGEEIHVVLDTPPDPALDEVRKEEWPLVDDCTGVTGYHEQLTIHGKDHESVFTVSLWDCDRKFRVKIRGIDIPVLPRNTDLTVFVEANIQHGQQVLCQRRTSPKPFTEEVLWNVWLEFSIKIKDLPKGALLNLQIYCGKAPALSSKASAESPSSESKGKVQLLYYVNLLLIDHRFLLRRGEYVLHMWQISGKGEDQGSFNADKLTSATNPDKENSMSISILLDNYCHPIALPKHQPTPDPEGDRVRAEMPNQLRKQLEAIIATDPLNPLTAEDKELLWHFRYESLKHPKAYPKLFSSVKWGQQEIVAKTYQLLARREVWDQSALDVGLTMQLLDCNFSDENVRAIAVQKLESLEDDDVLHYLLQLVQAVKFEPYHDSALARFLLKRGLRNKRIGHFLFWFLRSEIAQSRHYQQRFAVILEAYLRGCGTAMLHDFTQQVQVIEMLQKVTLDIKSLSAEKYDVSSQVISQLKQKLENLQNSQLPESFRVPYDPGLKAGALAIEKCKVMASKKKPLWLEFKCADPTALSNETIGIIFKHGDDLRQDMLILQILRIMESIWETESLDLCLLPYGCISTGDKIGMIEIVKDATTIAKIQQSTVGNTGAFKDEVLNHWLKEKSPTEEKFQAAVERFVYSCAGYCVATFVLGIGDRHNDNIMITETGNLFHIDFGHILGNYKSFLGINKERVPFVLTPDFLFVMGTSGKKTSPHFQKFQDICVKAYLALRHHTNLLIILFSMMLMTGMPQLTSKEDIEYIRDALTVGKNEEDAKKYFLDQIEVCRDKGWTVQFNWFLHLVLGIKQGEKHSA
Chain of PI3Kα (p110α/p85α) (P42336 whole entry, species assumed): as the sequence (P42336 whole entry E542K) above, with K542E counted along it
Chain of PI3Kα (p110α/p85α) (P27986 whole entry partner, species assumed): as the sequence (P27986 whole entry partner) above
Chain of PI3K (p110α/p65α) (P42336 whole entry, species assumed): as the sequence (P42336 whole entry E542K) above, with K542E counted along it
Chain of PI3KC2α (O00443 whole entry, species assumed): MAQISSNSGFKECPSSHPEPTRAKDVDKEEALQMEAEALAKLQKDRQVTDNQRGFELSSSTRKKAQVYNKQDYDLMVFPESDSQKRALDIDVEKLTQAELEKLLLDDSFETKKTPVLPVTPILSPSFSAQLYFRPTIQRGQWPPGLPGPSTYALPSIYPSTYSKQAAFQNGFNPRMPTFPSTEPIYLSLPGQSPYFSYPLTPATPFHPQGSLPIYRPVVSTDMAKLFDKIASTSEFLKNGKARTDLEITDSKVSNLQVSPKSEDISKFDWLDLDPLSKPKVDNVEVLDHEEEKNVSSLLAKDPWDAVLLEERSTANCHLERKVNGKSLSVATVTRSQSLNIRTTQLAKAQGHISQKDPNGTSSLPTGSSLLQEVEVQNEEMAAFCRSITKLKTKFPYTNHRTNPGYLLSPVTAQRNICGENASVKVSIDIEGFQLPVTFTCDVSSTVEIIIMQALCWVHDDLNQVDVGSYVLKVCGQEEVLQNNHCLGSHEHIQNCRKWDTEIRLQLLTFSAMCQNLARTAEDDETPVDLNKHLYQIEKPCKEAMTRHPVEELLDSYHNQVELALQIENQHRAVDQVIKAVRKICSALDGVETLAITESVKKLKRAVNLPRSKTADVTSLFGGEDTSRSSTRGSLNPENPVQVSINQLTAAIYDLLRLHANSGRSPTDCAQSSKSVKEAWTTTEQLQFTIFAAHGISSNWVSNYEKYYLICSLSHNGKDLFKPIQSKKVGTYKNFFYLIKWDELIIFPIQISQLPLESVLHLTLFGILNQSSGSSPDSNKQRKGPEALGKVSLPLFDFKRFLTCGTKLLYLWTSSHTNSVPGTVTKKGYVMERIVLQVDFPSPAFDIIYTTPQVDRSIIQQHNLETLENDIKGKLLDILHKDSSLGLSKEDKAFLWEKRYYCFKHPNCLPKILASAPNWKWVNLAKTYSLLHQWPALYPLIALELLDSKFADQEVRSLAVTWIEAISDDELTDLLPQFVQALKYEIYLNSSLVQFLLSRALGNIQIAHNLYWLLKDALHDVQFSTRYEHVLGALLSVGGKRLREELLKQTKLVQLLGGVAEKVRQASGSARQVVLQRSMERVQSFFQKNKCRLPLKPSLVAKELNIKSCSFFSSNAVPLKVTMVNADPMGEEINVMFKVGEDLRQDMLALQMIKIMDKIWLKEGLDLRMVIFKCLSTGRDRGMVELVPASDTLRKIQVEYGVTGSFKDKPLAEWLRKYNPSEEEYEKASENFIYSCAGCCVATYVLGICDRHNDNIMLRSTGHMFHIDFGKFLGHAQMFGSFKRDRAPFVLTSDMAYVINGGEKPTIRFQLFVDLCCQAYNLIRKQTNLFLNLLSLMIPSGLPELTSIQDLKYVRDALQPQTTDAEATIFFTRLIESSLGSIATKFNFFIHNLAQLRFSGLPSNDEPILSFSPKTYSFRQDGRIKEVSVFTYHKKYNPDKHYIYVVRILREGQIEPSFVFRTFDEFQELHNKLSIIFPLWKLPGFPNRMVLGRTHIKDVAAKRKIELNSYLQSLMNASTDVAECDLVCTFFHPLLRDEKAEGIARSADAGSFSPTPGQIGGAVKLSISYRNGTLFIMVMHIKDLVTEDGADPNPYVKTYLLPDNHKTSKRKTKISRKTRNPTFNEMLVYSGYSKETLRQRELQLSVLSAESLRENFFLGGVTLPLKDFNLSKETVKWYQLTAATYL
Chain of PI3K (p110α (H1047R)/p85α) (P42336 whole entry H1047R): as the sequence (P42336 whole entry E542K) above, with K542E, H1047R counted along it
Chain of PI3K (p110α (H1047R)/p85α) (P27986 whole entry partner): as the sequence (P27986 whole entry partner) above

Row | Structure (SMILES) | IC50 [1] | inhibition at 1 µM [2] | inhibition at 1 µM [3] | inhibition at 1 µM [4] | inhibition at 1 µM [5] | inhibition at 1 µM [6] | inhibition at 1 µM [7] | inhibition at 1 µM [8] | inhibition at 1 µM [9] | inhibition at 1 µM [10]
1 | COC(=O)Nc1cc(-c2cc(-c3cccnc3C(F)(F)F)[nH]c(=O)c2)c(N)cn1 [Example 15] | 100 to 500 nM | -11% | -2% | 10% | -12% | -26% | -4% | -5% | 16% | -19%
2 | Cc1cnc(NC(=O)OC2CC3(CNC3)C2)cc1-c1cc(N2CCCC[C@@H]2C(F)(F)F)[nH]c(=O)c1 [Example 28] | 100 to 500 nM | -20% | -5% | -3% | -3% | 3% | 0% | 6% | -10% | -31%
3 | Cc1cnc(NC(=O)CC2CNCC2(F)F)cc1-c1cc(N2CCCC[C@@H]2C(F)(F)F)[nH]c(=O)c1 (stereo partly shown) [Example 22] | 100 to 500 nM | -4% | -1% | -4% | -4% | 2% | -3% | 4% | -8% | 3%
4 | Cc1nccc(Nc2cc(-c3cc(-c4cccnc4C(F)(F)F)[nH]c(=O)c3)c(C)cn2)n1 [Example 38] | ≤ 100 nM | 16% | 24% | 23% | 19% | 4% | 18% | 52% | 66% | 24%
